Results from ChEMBL document CHEMBL2321696, “Azaindole-Based Inhibitors of Cdc7 Kinase: Impact of the Pre-DFG Residue, Val 195” (ACS Med Chem Lett, 2013).

The compounds below were run against Glycogen synthase kinase-3 beta (Homo sapiens, UniProt P49841) (assay: Inhibition of human recombinant GSK3beta).
Chain of Glycogen synthase kinase-3 beta (P49841 whole entry): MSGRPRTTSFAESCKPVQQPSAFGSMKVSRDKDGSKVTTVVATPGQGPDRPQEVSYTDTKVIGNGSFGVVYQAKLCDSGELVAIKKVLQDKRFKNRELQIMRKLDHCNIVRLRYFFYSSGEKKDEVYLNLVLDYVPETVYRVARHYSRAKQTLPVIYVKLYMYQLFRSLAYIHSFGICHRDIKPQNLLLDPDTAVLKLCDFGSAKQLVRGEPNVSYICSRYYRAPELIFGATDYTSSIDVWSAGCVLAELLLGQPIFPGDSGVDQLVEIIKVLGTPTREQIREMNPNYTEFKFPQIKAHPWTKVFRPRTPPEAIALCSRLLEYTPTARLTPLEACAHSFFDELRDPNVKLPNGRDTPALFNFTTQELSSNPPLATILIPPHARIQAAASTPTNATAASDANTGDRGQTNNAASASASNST

| Ki | Compound |
| --- | --- |
| 58 nM | Clc1cc(-c2c[nH]c3ncccc23)cc(NC2CCCCC2)n1 |

The compounds below were run against Cell division cycle 7-related protein kinase (Homo sapiens, UniProt O00311) (assay: Inhibition of human Cdc7 using biotin-C6linker-TPSDSLIYDDGLS as substrate after 1 hr).
Chain of Cell division cycle 7-related protein kinase (O00311 whole entry): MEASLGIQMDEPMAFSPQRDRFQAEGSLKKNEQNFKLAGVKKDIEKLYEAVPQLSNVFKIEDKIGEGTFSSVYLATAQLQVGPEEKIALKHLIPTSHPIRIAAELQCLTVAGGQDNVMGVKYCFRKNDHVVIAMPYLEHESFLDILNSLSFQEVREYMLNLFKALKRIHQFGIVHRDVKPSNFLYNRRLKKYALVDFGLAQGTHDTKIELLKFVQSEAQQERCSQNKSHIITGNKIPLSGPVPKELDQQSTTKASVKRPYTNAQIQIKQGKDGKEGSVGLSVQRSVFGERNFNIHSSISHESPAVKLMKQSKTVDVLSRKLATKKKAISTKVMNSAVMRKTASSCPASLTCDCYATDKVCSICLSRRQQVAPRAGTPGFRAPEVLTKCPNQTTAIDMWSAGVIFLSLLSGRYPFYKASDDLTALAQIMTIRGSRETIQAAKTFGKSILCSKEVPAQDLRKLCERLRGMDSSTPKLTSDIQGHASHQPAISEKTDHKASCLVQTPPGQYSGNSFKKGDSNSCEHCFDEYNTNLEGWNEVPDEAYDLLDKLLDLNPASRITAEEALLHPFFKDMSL

| Compound | Ki |
| --- | --- |
| O=c1cc(-c2c[nH]c3ncccc23)cc(NC2CCCCC2)[nH]1 | 0.28 nM |
| N#Cc1cc(-c2c[nH]c3ncccc23)cc(N[C@H]2CC[C@H](O)CC2)n1 | 5.5 nM |
| Cc1cc(-c2c[nH]c3ncccc23)cc(N[C@H]2CC[C@H](O)CC2)n1 | 27 nM |
| Fc1cc(-c2c[nH]c3ncccc23)cc(NC2CCCCC2)n1 | 3.2 nM |
| O[C@H]1CC[C@H](Nc2cc(-c3c[nH]c4ncccc34)cc(F)n2)CC1 | 1.7 nM |

Continued by falling Ki, values first:

| Ki | Compound |
| --- | --- |
| 67 nM | NC(=O)c1cc(-c2c[nH]c3ncccc23)cc(N[C@H]2CC[C@H](O)CC2)n1 |
| 15 nM | Cc1cc(-c2c[nH]c3ncccc23)cc(NCc2ccccc2)n1 |
| 13 nM | Cc1cc(-c2c[nH]c3ncccc23)cc(NC2CCCCC2)n1 |
| 8.7 nM | c1cnc2[nH]cc(-c3ccnc(NC4CCCCC4)c3)c2c1 |
| 7.7 nM | N#Cc1cc(-c2c[nH]c3ncccc23)cc(NC2CCCCC2)n1 |
| 3.4 nM | N[C@H]1CC[C@H](Nc2cc(-c3c[nH]c4ncccc34)cc(F)n2)CC1 |
| 1.4 nM | N#Cc1cc(-c2c[nH]c3ncccc23)cc(NCc2ccccc2)n1 |
| 0.9 nM | Clc1cc(-c2c[nH]c3ncccc23)cc(NC2CCCCC2)n1 |
